Where two headings read alike, the source gives them in different places.
Tests used:
[1] = system: HT-29 cells; experiment: Cell viability MTT assay, HT-29; type: cell-based; details: Homo sapiens
Experimental: (§1) In the present study, the potential cytotoxicity of compounds 10a–10p was evaluated in vitro by MTT assay. […] So, half of each cell line were subjected to hypoxic conditions (0.5% O2, 5% CO2 and 94.5% N2) for inducing the expression of CA IX and the other half were incubated under normal conditions (normoxia). Subsequently, all synthesized derivatives were screened at a concentration of 100 μM to test their cytotoxicity in mentioned above cells.
(§2) The two human cancer cell lines were cultivated for 24 h at 37 °C in a 96-well plate. Subsequently, different concentrations of inhibitors were added to 96-well plate and then was incubated for 96 hours. After the MTT solution was added to per well, cancer cells were further incubated for 4 h at 37 °C. Finally, formazan crystals were dissolved by using DMSO. The cancer cells were from American Type Culture Collection.

[2] = system: MDA-MB-231 cells; experiment: Cell viability MTT assay, MDA-MB-231; type: cell-based; details: Homo sapiens
Experimental: as §1, §2

[3] = molecular target: T1, hCA I (Homo sapiens, UniProt P00915); experiment: CA inhibition by the esterase assay, hCA I; type: biochemical; details: human recombinant enzyme, 4-nitrophenylacetate as substrate
T1 construct: purchased
Experimental: (§3) The esterase assay was used for testing the inhibitory activities of target compounds against carbonic anhydrases. […] Next, the stock solution of inhibitor was diluted to the specified concentration by using analysis buffer. […] In addition, the purchased CA was diluted with analysis buffer and added to 96-well plates. Next, different concentrations of inhibitors were also added to 96-well plates. To form the inhibitors and enzymes complex, E-I solutions were preincubated together for 4 h before the test at room temperature. Meanwhile, the nonenzymatic hydrolysis rates were tested by the blank control experiments. The absorbances were determined by using multifunctional enzyme marking instrument.

[4] = molecular target: hCA II (Homo sapiens, UniProt P00918); experiment: CA inhibition by the esterase assay, hCA II; type: biochemical; details: human recombinant enzyme, 4-nitrophenylacetate as substrate
Experimental: as §3

[5] = molecular target: T2, hCA IX (Homo sapiens, UniProt Q16790); experiment: CA inhibition by the esterase assay, hCA IX; type: biochemical; details: for IC50: human recombinant enzyme, esterase assay, 4-nitrophenylacetate as substrate; for Selectivity Ratio hCA I/hCA IX / Selectivity Ratio hCA II/hCA IX: ratio of IC50 values
T2 construct: purchased
Experimental: as §3

[6] = Metabolic stability in mouse liver microsomes; details: mouse, liver microsomes
[7] = hypoxia (0.5% O2, 5% CO2 and 94.5% N2), read-out: Cell Viability (%) HT-29 Hypoxia
[8] = normoxia, read-out: Cell Viability (%) HT-29 Normoxia
[9] = hypoxia (0.5% O2, 5% CO2 and 94.5% N2), read-out: Cell Viability (%) MDA-MB-231 Hypoxia
[10] = normoxia, read-out: Cell Viability (%) MDA-MB-231 Normoxia

T1 sequence (P00915 whole entry): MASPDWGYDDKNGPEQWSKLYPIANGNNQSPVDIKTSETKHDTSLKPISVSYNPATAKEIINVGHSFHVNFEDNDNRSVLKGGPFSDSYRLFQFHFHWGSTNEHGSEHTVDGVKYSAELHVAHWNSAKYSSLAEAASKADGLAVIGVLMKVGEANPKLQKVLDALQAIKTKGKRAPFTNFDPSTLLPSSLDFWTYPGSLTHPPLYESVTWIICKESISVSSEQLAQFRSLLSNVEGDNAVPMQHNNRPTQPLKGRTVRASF

Structure (SMILES): CC(=O)Nc1nnc(S(N)(=O)=O)s1 [AAZ, acetazolamide, reference compound]
- viability at 100 µM [1, 7]: 80.1%
- viability at 100 µM [1, 8]: 85.2%
- viability at 100 µM [2, 9]: 80.3%
- viability at 100 µM [2, 10]: 84.7%

Structure (SMILES): O=c1ccc2ccc(OCc3cn([C@@H]4O[C@H](CO)[C@H](O)[C@H](O)[C@H]4O)nn3)cc2o1 [Compound 10b, 7-[(1-β-. D-galactopyranosyl-1H-1,2,3-triazol-4-yl)methoxy]-2H-chromen-2-one]
- IC50 [3]: 24.3 µM
- IC50 [4]: 31.3 µM
- IC50 [5]: 0.074 µM
- Selectivity Ratio hCA I/hCA IX [5]: 328
- Selectivity Ratio hCA II/hCA IX [5]: 423
- viability at 100 µM [1, 7]: 48.7%
- viability at 100 µM [1, 8]: 50.5%
- viability at 100 µM [2, 9]: 33.7%
- viability at 100 µM [2, 10]: 61.4%
- CLint scaled at 1 μM [6]: 4.33 mL/min/kg
- half-life at 1 μM [6]: 21.1 h

Structure (SMILES): N[C@@H]1[C@@H](O)[C@H](O)[C@@H](CO)O[C@H]1n1cc(COc2ccc3ccc(=O)oc3c2)nn1 [Compound 10d, 7-[(1-β-. D-glucosaminogly-1H-1,2,3-triazol-4-yl)methoxy]-2H-chromen-2-one]
- IC50 [3]: 51.5 µM
- IC50 [4]: 32.8 µM
- IC50 [5]: 0.057 µM
- Selectivity Ratio hCA I/hCA IX [5]: 904
- Selectivity Ratio hCA II/hCA IX [5]: 575
- viability at 100 µM [1, 7]: 45.6%
- viability at 100 µM [1, 8]: 57%
- viability at 100 µM [2, 9]: 38.9%
- viability at 100 µM [2, 10]: 60.2%
- melting point: 131.3 to 134.2 °C
- CLint scaled at 1 μM [6]: 4.26 mL/min/kg
- half-life at 1 μM [6]: 21.5 h

Structure (SMILES): O=c1ccc2ccc(OCc3cn([C@@H]4OC[C@@H](O)[C@H](O)[C@H]4O)nn3)cc2o1 [Compound 10e, 7-[(1-β-. D-xylopyranosyl-1H-1,2,3-triazol-4-yl)methoxy]-2H-chromen-2-one]
- IC50 [3]: 42.3 µM
- IC50 [4]: 21 µM
- IC50 [5]: 0.061 µM
- Selectivity Ratio hCA I/hCA IX [5]: 693
- Selectivity Ratio hCA II/hCA IX [5]: 344
- viability at 100 µM [1, 7]: 39.5%
- viability at 100 µM [1, 8]: 49.3%
- viability at 100 µM [2, 9]: 42.9%
- viability at 100 µM [2, 10]: 58.2%
- melting point: 128.4 to 130.6 °C
- CLint scaled at 1 μM [6]: 4.04 mL/min/kg
- half-life at 1 μM [6]: 22.6 h

Structure (SMILES): O=c1ccc2ccc(OCc3cn([C@@H]4OC[C@H](O)[C@H](O)[C@H]4O)nn3)cc2o1 [Compound 10f, 7-[(1-β-. L-arabinopyranosyl-1H-1,2,3-triazol-4-yl)methoxy]-2H-chromen-2-one]
- IC50 [3]: 65.6 µM
- IC50 [4]: 31.7 µM
- IC50 [5]: 0.042 µM
- Selectivity Ratio hCA I/hCA IX [5]: 1562
- Selectivity Ratio hCA II/hCA IX [5]: 755
- viability at 100 µM [1, 7]: 38.1%
- viability at 100 µM [1, 8]: 48.7%
- viability at 100 µM [2, 9]: 33.8%
- viability at 100 µM [2, 10]: 65.6%
- melting point: 133.1 to 135.1 °C
- CLint scaled at 1 μM [6]: 3.75 mL/min/kg
- half-life at 1 μM [6]: 24.4 h

Structure (SMILES): C[C@@H]1O[C@H](n2cc(COc3ccc4ccc(=O)oc4c3)nn2)[C@H](O)[C@H](O)[C@H]1O [Compound 10g, 7-[(1-β-. L-rhamnosyl-1H-1,2,3-triazol-4-yl)methoxy]-2H-chromen-2-one]
- IC50 [3]: 36.5 µM
- IC50 [4]: 31.6 µM
- IC50 [5]: 0.124 µM
- Selectivity Ratio hCA I/hCA IX [5]: 294
- Selectivity Ratio hCA II/hCA IX [5]: 255
- viability at 100 µM [1, 7]: 38.7%
- viability at 100 µM [1, 8]: 42.4%
- viability at 100 µM [2, 9]: 36.1%
- viability at 100 µM [2, 10]: 53.2%
- melting point: 126.1 to 129.6 °C
- CLint scaled at 1 μM [6]: 3.65 mL/min/kg
- half-life at 1 μM [6]: 25 h

Structure (SMILES): Cc1cc(=O)oc2cc(OCc3cn([C@@H]4O[C@H](CO)[C@@H](O)[C@H](O)[C@H]4O)nn3)ccc12 [Compound 10i, 7-[(1-β-. D-glucopyranosyl-1H-1,2,3-triazol-4-yl)methoxy]-4-methyl-2H-chromen-2-one]
- IC50 [3]: 32.1 µM
- IC50 [4]: 14 µM
- IC50 [5]: 0.084 µM
- Selectivity Ratio hCA I/hCA IX [5]: 382
- Selectivity Ratio hCA II/hCA IX [5]: 167
- viability at 100 µM [1, 7]: 42.6%
- viability at 100 µM [1, 8]: 48.5%
- viability at 100 µM [2, 9]: 33.2%
- viability at 100 µM [2, 10]: 65.2%
- melting point: 127.9 to 130.2 °C
- CLint scaled at 1 μM [6]: 3.83 mL/min/kg
- half-life at 1 μM [6]: 23.9 h

Structure (SMILES): Cc1cc(=O)oc2cc(OCc3cn([C@@H]4O[C@H](CO)[C@H](O)[C@H](O)[C@H]4O)nn3)ccc12 [Compound 10j, 7-[(1-β-. D-galactopyranosyl-1H-1,2,3-triazol-4-yl)methoxy]-4-methyl-2H-chromen-2-one]
- IC50 [3]: 44.1 µM
- IC50 [4]: 16.1 µM
- IC50 [5]: 0.098 µM
- Selectivity Ratio hCA I/hCA IX [5]: 450
- Selectivity Ratio hCA II/hCA IX [5]: 164
- viability at 100 µM [1, 7]: 46.4%
- viability at 100 µM [1, 8]: 60.2%
- viability at 100 µM [2, 9]: 40.9%
- viability at 100 µM [2, 10]: 64.7%
- melting point: 124.2 to 126.6 °C
- CLint scaled at 1 μM [6]: 3.5 mL/min/kg
- half-life at 1 μM [6]: 26.1 h

Structure (SMILES): Cc1cc(=O)oc2cc(OCc3cn([C@@H]4O[C@H](CO)[C@@H](O)[C@H](O)[C@@H]4O)nn3)ccc12 [Compound 10k, 7-[(1-β-. D-mannopyranosyl-1H-1,2,3-triazol-4-yl)methoxy]-4-methyl-2H-chromen-2-one]
- IC50 [3]: 49 µM
- IC50 [4]: 23 µM
- IC50 [5]: 0.042 µM
- Selectivity Ratio hCA I/hCA IX [5]: 1167
- Selectivity Ratio hCA II/hCA IX [5]: 548
- viability at 100 µM [1, 7]: 40.3%
- viability at 100 µM [1, 8]: 52.3%
- viability at 100 µM [2, 9]: 33.7%
- viability at 100 µM [2, 10]: 61.3%
- melting point: 121.5 to 122.6 °C
- CLint scaled at 1 μM [6]: 3.25 mL/min/kg
- half-life at 1 μM [6]: 28.1 h

Structure (SMILES): Cc1cc(=O)oc2cc(OCc3cn([C@@H]4O[C@H](CO)[C@@H](O)[C@H](O)[C@H]4N)nn3)ccc12 [Compound 10l, 7-[(1-β-. D-glucosaminogly-1H-1,2,3-triazol-4-yl)methoxy]-4-methyl-2H-chromen-2-one]
- IC50 [3]: 56.9 µM
- IC50 [4]: 31.4 µM
- IC50 [5]: 0.032 µM
- Selectivity Ratio hCA I/hCA IX [5]: 1778
- Selectivity Ratio hCA II/hCA IX [5]: 981
- viability at 100 µM [1, 7]: 44.8%
- viability at 100 µM [1, 8]: 51.2%
- viability at 100 µM [2, 9]: 38.5%
- viability at 100 µM [2, 10]: 65.1%
- melting point: 126.2 to 128.4 °C
- CLint scaled at 1 μM [6]: 3.07 mL/min/kg
- half-life at 1 μM [6]: 29.8 h

Reference: paper PMC9458059, “Design, Synthesis and Biological Evaluation of New Carbohydrate-Based Coumarin Derivatives as Selective Carbonic Anhydrase IX Inhibitors via “Click” Reaction” (Molecules, 2022)
